Reference: patent publication US9815794B2, “Inhibition of bacterial biofilms and microbial growth with imidazole derivatives” (North Carolina State University, priority 2011, dated 2017)
Values after ≈ are worked out from the molar mass of the structure shown. Read-outs that look alike come from different tables or passages of the source.

Key:
Vibrio cholerae = assay: Marine bacteria microdilution MIC; assay type: cell-based; conditions: Vibrio cholerae, V. cholerae
MRSA = assay: Broth microdilution MIC; assay type: cell-based, methicillin-resistant S. aureus; conditions: Staphylococcus aureus
Procedure: (§1) Once it was determined that this specific 4,5-disubstitution pattern imparted microbicidal activity onto the 2-AI framework, this activity was quantified by measuring the MIC of each derivative against a variety of representative pathogenic bacterial strains using the microdilution protocol (CSLI, Performance Standards for Antimicrobial Suceptibility Testing; Nineteenth Informational Supplement, Clinical and Laboratory Standards Institute, Wayne, Pa., 2009). E. coli, MDRAB, P. aeruginosa, MRSA, MSSA, S. epidermidis and VRE were used for initial evaluation. From this screen, compound 15 was determined to be the lead compound and had MIC values (μg/mL) of 2, 2, 1, 0.5, 0.25, and 1 against E. coli, MDRAB, MRSA, VRE, S. Epidermidis and MSSA.
(§2) S. aureus (ATCC #29213), S. epidermidis (ATCC #29886), MRSA (ATCC # BAA-44), MDRAB (ATCC # BAA-1605), vancomycin resistant Enterococcus faecium (VRE) (ATCC #51559) and E. coli (ATCC #35695) were obtained from the ATCC. Mechanically difibrinated sheep blood (DSB100) was obtained from Hemostat Labs. Mueller-Hinton medium was purchased from Fluka (#70192).
(§3) Broth Microdilution Method for MIC Determination.

E. coli [1] = assay: Biofilm formation inhibition, crystal violet reporter assay; assay type: cell-based; conditions: Escherichia coli, 100 μM
Procedure: (§4) The ability of each member of the pilot library to inhibit either E. coli or MDRAB biofilm formation at 100 μM was assessed using a crystal violet reporter assay (O'Toole et al., Mol. Microbiol., 1998, 30: 295-304).
This is typically indicative of biofilm inhibition via a traditional microbicidal mechanism instead of a mechanism that modulates biofilm formation through non-microbicidal mechanisms. […] At this concentration, a 97% reduction in bacterial growth was observed.

MSSA = assay: Broth microdilution MIC; assay type: cell-based, S. aureus; conditions: Staphylococcus aureus
Procedure: as §1, §2, §3

Vibrio vulnificus = assay: Marine bacteria microdilution MIC; conditions: Vibrio vulnificus, V. vulnificus
MDRAB [2] = assay: Broth microdilution MIC; assay type: cell-based
Procedure: as §1, §2, §3

S. epidermidis = assay: Broth microdilution MIC; assay type: cell-based
Procedure: as §1, §2, §3

E. coli [3] = assay: Broth microdilution MIC; assay type: cell-based; conditions: Escherichia coli
Procedure: as §1, §2, §3

VRE = assay: Broth microdilution MIC; assay type: cell-based, vancomycin resistant Enterococcus faecium; conditions: Enterococcus
Procedure: as §1, §2, §3

[4] = tested on: Rhodospirillum salexigens; assay: Marine bacteria microdilution MIC; conditions: Rhodothalassium salexigens, R. salexigens
Listonella anguillarum = assay: Marine bacteria microdilution MIC; conditions: Vibrio anguillarum, L. anguillarum
MDRAB [5] = assay: Biofilm formation inhibition, crystal violet reporter assay; assay type: cell-based
Procedure: as §4

all of the test strains = assay: Antibiotic activity (MIC) of control 2-aminoimidazoles against the test strains; assay type: cell-based
Procedure: To examine the necessity of the 4,5-disubstitution pattern for antimicrobial activity of the 2-aminoimidazole scaffold, two monosubstituted 2-aminoimidazole analogues of compound 19 were synthesized and screened alongside the parent 2-aminoimidazole for antibiotic activity (Scheme 2). Heptanoic acid and phenylhexanoic acid were treated with oxalyl chloride with catalytic dimethyl formamide in dichloromethane to produce the respective acid chlorides, which were then reacted with diazomethane and quenched with hydrobromic acid to make the respective alpha-bromo ketones. These alpha-bromo ketones were separately cyclized with boc-guanidine, providing a boc-protected 2-aminoimidazole scaffold that was subsequently deprotected upon treatment with trifluoroacetic acid in dichloromethane to yield 22 and 23.
as §3

[6] = Staphylococcus epidermidis, read-out: MIC

CCCc1[nH]c(N)nc1CCCCCc1ccccc1 [Compound 13, 4-(5-phenylpentyl)-5-propyl-1H-imidazol-2-amine]
MIC (Vibrio cholerae): 15.4 µg/mL (≈ 56.7 µM)
MIC (MRSA): 4 µg/mL (≈ 14.7 µM)
inhibition at 100 µM (E. coli [1]): 95.8 ± 1.5%
MIC (MSSA): 4 µg/mL (≈ 14.7 µM)
MIC (Vibrio vulnificus): 3.85 µg/mL (≈ 14.2 µM)
MIC (MDRAB [2]): 8 µg/mL (≈ 29.5 µM)
MIC (S. epidermidis; [6]): 0.5 µg/mL (≈ 1.84 µM)
MIC (E. coli [3]): 8 µg/mL (≈ 29.5 µM)
MIC (VRE): 4 µg/mL (≈ 14.7 µM)
MIC [4]: 3.85 µg/mL (≈ 14.2 µM)
MIC (Listonella anguillarum): 7.7 µg/mL (≈ 28.4 µM)
inhibition at 100 µM (MDRAB [5]): 87.8 ± 0.3%

CCCCCCc1c[nH]c(N)n1.Cl [Compound 22, 4-hexyl-1H-imidazol-2-amine hydrochloride]
MIC (S. epidermidis; [6]): 0.04 µg/mL
MIC (all of the test strains; Staphylococcus epidermidis, all of the test strains except for S. epidermidis): > 41 µg/mL

Cl.Nc1nc(CCCCCc2ccccc2)c[nH]1 [Compound 23]
MIC (S. epidermidis): 0.05 µg/mL
antibiotic activity (all of the test strains; any of the test strains except for S. epidermidis): no notable antibiotic activity

CCCCc1[nH]c(N)nc1CCCCCc1ccccc1 [Compound 14, 5-butyl-4-(5-phenylpentyl)-1H-imidazol-2-amine]
MIC (Vibrio cholerae): 8.05 µg/mL (≈ 28.2 µM)
MIC (MRSA): 2 µg/mL (≈ 7.01 µM)
inhibition at 100 µM (E. coli [1]): 96.9 ± 1.1%
MIC (MSSA): 2 µg/mL (≈ 7.01 µM)
MIC (Vibrio vulnificus): 4.02 µg/mL (≈ 14.1 µM)
MIC (MDRAB [2]): 4 µg/mL (≈ 14 µM)
MIC (S. epidermidis; [6]): 0.25 µg/mL (≈ 0.876 µM)
MIC (E. coli [3]): 4 µg/mL (≈ 14 µM)
MIC (VRE): 2 µg/mL (≈ 7.01 µM)
MIC [4]: 8.05 µg/mL (≈ 28.2 µM)
MIC (Listonella anguillarum): 4.02 µg/mL (≈ 14.1 µM)
inhibition at 100 µM (MDRAB [5]): 85.4 ± 0.7%

Nc1ncc[nH]1 [Compound 21, 2-aminoimidazole, reference compound]
antibiotic activity (all of the test strains; highest concentration tested (36 μg/mL), every bacterial strain): no antibiotic activity

CCc1[nH]c(N)nc1CCCCCc1ccccc1 [Compound 12, 5-ethyl-4-(5-phenylpentyl)-1H-imidazol-2-amine]
MIC (Vibrio cholerae): 29.4 µg/mL (≈ 114 µM)
MIC (MRSA): 8 µg/mL (≈ 31.1 µM)
inhibition at 100 µM (E. coli [1]): > 99%
MIC (MSSA): 4 µg/mL (≈ 15.5 µM)
MIC (Vibrio vulnificus): 29.4 µg/mL (≈ 114 µM)
MIC (MDRAB [2]): 32 µg/mL (≈ 124 µM)
MIC (S. epidermidis; [6]): 2 µg/mL (≈ 7.77 µM)
MIC (E. coli [3]): 16 µg/mL (≈ 62.2 µM)
MIC (VRE): 8 µg/mL (≈ 31.1 µM)
MIC [4]: 14.7 µg/mL (≈ 57.1 µM)
MIC (Listonella anguillarum): 14.7 µg/mL (≈ 57.1 µM)
inhibition at 100 µM (MDRAB [5]): 94.5 ± 0.2%

Cc1[nH]c(N)nc1CCCCCc1ccccc1 [Compound 11, 5-methyl-4-(5-phenylpentyl)-1H-imidazol-2-amine]
MIC (Vibrio cholerae): 27.9 µg/mL (≈ 115 µM)
MIC (MRSA): 4 µg/mL (≈ 16.4 µM)
inhibition at 100 µM (E. coli [1]): 96.3 ± 0.08%
MIC (MSSA): 2 µg/mL (≈ 8.22 µM)
MIC (Vibrio vulnificus): 13.9 µg/mL (≈ 57.1 µM)
MIC (MDRAB [2]): 8 µg/mL (≈ 32.9 µM)
MIC (S. epidermidis; [6]): 1 µg/mL (≈ 4.11 µM)
MIC (E. coli [3]): 8 µg/mL (≈ 32.9 µM)
MIC (VRE): 8 µg/mL (≈ 32.9 µM)
MIC [4]: 7 µg/mL (≈ 28.8 µM)
MIC (Listonella anguillarum): 13.9 µg/mL (≈ 57.1 µM)
inhibition at 100 µM (MDRAB [5]): > 99%
